Measurements as given in US20230405069A1, “METHODS OF TREATING AND […] CORONAVIRUS AND OTHER INDICATIONS, AND COMPOSITIONS FOR USE WITH SAME” (priority 2020, published 2023).

Tested on: viral infection
Experiment: Subjects with symptoms of viral infection treated with disclosed medicinal compositions (symptom improvement / recovery)
Type: in vivo, human
Conditions: Patient 6; one paracetamol/acetaminophen on Day 1 of symptoms
Description: The disclosed compositions are useful in reducing symptoms and/or eliminating viruses in persons suffering from a viral infection or believed to be suffering from a viral infection. Eliminating a virus or an infection from a subject, as used herein, may be referred to as ‘curing’ a subject, for example wherein a subject that has tested positive for the virus (by DNA, RNA, protein, and/or antibody analysis) has no detectable virus (by the same or a different method) after treatment. In these subjects, adults may be administered about 2 ml to about 150 ml per composition per day as a single dose or separated into multiple doses. In some embodiments the subject may be administered the disclosed compounds once, twice, three, or more times a day. In some embodiments, for example, an adult may be administered about 5 ml to about 150 ml of each medicinal composition each day. In many embodiments, (for example where the dose is 15 ml/day) 5 ml is administered 3 times per day as a 5 ml dose. In other embodiments, a 5 ml/day dose may also be divided into 3 or more smaller doses for administration throughout the day—for example about 2 ml three times per day. […]

**Q.** Which effect on symptoms does the source give for `CC(=O)Nc1ccc(O)cc1` [paracetamol/acetaminophen] here?
**A.** Its effect on symptoms is “symptoms persisted”.
